Laboratory results reported in patent US9084826B2, “Fatty acid conjugates of statin and FXR agonists; compositions and method of uses” (Catabasis Pharmaceuticals, Inc., priority 2012, dated 2015).

Test system: PCSK9 secreted from HepG2 cells
Assay: PCSK9 secretion assay in HepG2 cells (PCSK9 ELISA)
Format: cell-based
Details: 16 hours incubation
Procedure: HepG2 cells (from ATCC, Catalog no. HB-8065) were maintained in DMEM (Invitrogen) supplemented with 10% fetal bovine serum (Invitrogen). The day prior to the PCSK9 assay, cells were seeded in 96-well collagen coated plates at 25,000 cells/well.
The compounds of the invention were stored at −20° C. until used. The test article compound was dissolved in 100% ethanol to a 50 mM stock solution. This was then diluted in FBS to a final concentration of 1 mM. This solution was placed in a sonicating water bath for 30 minutes. Subsequent dilutions were then made in FBS supplemented with an equivalent volume of ethanol and mixed by vortexing.
HepG2 cells were seeded onto a collagen coated 96-well plate (Becton Dickinson, Catalog no. 35-4407) the day prior to the assay, as described above. The next day, the cell medium was removed, washed once with […] serum free DMEM to remove any residual PCSK9, and replaced with […] of serum free DMEM. Ten microliters of each compound concentration prepared in FBS was then added. Each concentration of compound was tested in triplicate. The compound was incubated with the cells overnight for 16 hours. Following this incubation, 10 µL of AlamarBlue was added to each well and cells incubated for another 2 hours. The plates were then removed and AlamarBlue fluorescence was measured (excitation, 550 nm and […]) to assess cell viability. Cell culture supernatant was then diluted […] 1× RD5P Calibrator Diluent and PCSK9 ELISA was then performed with […] of this diluted sample, as per the manufacturer's instructions. The ELISA was measured on a Victor X5 multilabel plate reader (PerkinElmer) at an absorbance of 450 nm with background correction measured at 550 nm (The PCSK9 Elisa kits can be purchased from R&D System, Catalog no. DPC900).

[1] = two tested concentrations (6.25 and 25 μM)

SMILES | level of PCSK9 secreted from HepG2 cells [1] | further results
CC/C=C\C/C=C\C/C=C\C/C=C\C/C=C\CCCC(=O)NCCNC(=O)C[C@H](O)C[C@H](O)/C=C/c1c(-c2ccc(F)cc2)nc(N(C)S(C)(=O)=O)nc1C(C)C [Compound 1-43, (5Z,8Z,11Z,14Z,17Z)—N-(2-((3R,5S,E)-7-(4-(4-fluorophenyl)-6-isopropyl-2-(N-methylmethylsulfonamido)pyrimidin-5-yl)-3,5-dihydroxyhept-6-enamido)ethyl)icosa-5,8,11,14,17-pentaenamide] | did not cause an increase | –
CC/C=C\C/C=C\C/C=C\C/C=C\C/C=C\C/C=C\CCC(=O)NCCNC(=O)C[C@H](O)C[C@@H](O)CC[C@@H]1C2C(=C[C@H](C)CC2OC(=O)C(C)(C)CC)C=C[C@@H]1C (stereo partly drawn) [Compound I-1, (3R,7S,8S)-8-((3S,5R)-7-((2-((4Z,7Z,10Z,13Z,16Z,19Z)-docosa-4,7,10,13,16,19-hexaenamido)ethyl)amino)-3,5-dihydroxy-7-oxoheptyl)-3,7-dimethyl-1,2,3,7,8,8a-hexahydronaphthalen-1-yl 2,2-dimethylbutanoate] | – | level of PCSK9 secreted from HepG2 cells (6.25 μM, FIG. 1): no significant change; level of PCSK9 secreted from HepG2 cells (25 μM, FIG. 1): decrease
CC/C=C\C/C=C\C/C=C\C/C=C\C/C=C\C/C=C\CCC(=O)NCCNC(=O)C[C@H](O)C[C@H](O)CCn1c(-c2ccc(F)cc2)c(-c2ccccc2)c(C(=O)Nc2ccccc2)c1C(C)C [Compound I-22, 1-((3R,5R)-7-(2-(4Z,7Z,10Z,13Z,16Z,19Z)-docosa-4,7,10,13,16,19-hexaenamidoethylamino)-3,5-dihydroxy-7-oxoheptyl)-5-(4-fluorophenyl)-2-isopropyl-N,4-diphenyl-1H-pyrrole-3-carboxamide] | no significant change | –
CC(C)c1c(C(=O)Nc2ccccc2)c(-c2ccccc2)c(-c2ccc(F)cc2)n1CC[C@@H](O)C[C@@H](O)CC(=O)O [atorvastatin, reference compound] | – | level of PCSK9 secretion from HepG2 cells (1.25, 2.5, 5.0 and 10.0 μM, compared to the control, FIG. 1): significant increase
CC(C)c1nc(N(C)S(C)(=O)=O)nc(-c2ccc(F)cc2)c1/C=C/[C@@H](O)C[C@@H](O)CC(=O)O [rosuvastatin, reference compound] | increase | –
